# Results reported in patent US20150018566A1, “TUBULIN BINDING AGENTS” (priority 2011, published 2015).
# Where two headings read alike, the source gives them in different places.
# How the values were obtained:
# [1] = target: T1, tubulin (Sus scrofa, UniProt P02550+P02554); test: Tubulin assembly assay (tubulin binding); format: biochemical, porcine
# T1 construct: The procedure used is modified from Shelanski et al; from tissue
# Procedure: The buffer was prepared with deionised water and the pH of the solution was adjusted to 6.6 by the drop-wise addition of 10M aq. NaOH. The buffer was stored at 4° C. prior to use.
# Equipment: A Fluostar Optima 96 well plate reader equipped with a thermostat capability.
# The tubulin assembly was followed by observing an increase in optical density of a tubulin solution at 350 nm at 37° C. Typically 1 ml of tubulin solution was diluted with EB (5 ml) and GTP solution (25 μl, 5 μl per ml of EB added) to the mixture. The mixture was vortexed for ten seconds in order to ensure the homogeneity of the mixture. 100 μl of the resultant solution was pipetted into a well in the 96 well plate. The increase in optical density of the tubulin solution was measured over a time course of ten minutes at 350 nm and 37° C. […] Accordingly, adjustments were made to the quantity of buffer added in order to obtain a protein concentration within the desired range. […] Tubulin solution (1000 was subsequently pipetted into each of the same three wells. The plate was immediately incubated at 37° C. and was subjected to orbital shaking for five seconds. The UV absorption was measured at 350 nm over a time course of ten minutes. The maximum slope of the resulting curve was measured. The slope of the blank represents the maximum rate of tubulin polymerisation.
# [2] = tested on: HUVECs; test: Cell cycle analysis, G2/M phase, PI staining and flow cytometry; format: cell-based, human; settings: 24 h treatment
# Excerpt: Proliferating cells are constantly dividing to produce daughter cells. The most obvious cellular structure that requires duplication and division is the cell nucleus where DNA, cell's genetic material is present. During a cell cycle there are changes in the DNA content and thus there are different cycle stages including G0, G1, S, G2 and M (mitosis). The G0 stage of the cycle is a subset of G1 where the cells are quiescent and have limited cellular functions. Cells remain in the G1 portion of the cycle when are not in a process of cell division and thus G1 phase is the most predominant phase of the cycle appearing as the largest peak. In addition, during the G1 phase synthesis of many RNA and protein molecules is taking place which are necessary for DNA synthesis. G2 phase is a period for repair of any damaged DNA and for reorganisation of the DNA structure before entering the M phase. Cell cycle abnormalities could be a sign of cell damage, for example DNA damage causes interruption of the cell cycle at certain checkpoints such as the spindle assembly checkpoint (SAC) to prevent carcinogenesis.
# The mitotic spindle is composed of microtubules which together with regulatory proteins assist in the activity of properly segregating replicated chromosomes. It is well established that treatment of cells with tubulin polymerization inhibitors causes a G2/M phase arrest of the cell cycle and thus an observable increased DNA content at that stage.
# For this reason, cell cycle analysis was carried out using propidium iodide (PI) staining. The first protocol was presented by Krishan in 1975 [6]. The first step involves permeabilisation of the cells' plasma membrane by fixating the cells in ethanol in order for the fluorescent DNA dye to pass through the membrane and into the cells. Ribonuclease A (RNase A) was used to eliminate any RNA present inside the cells in order to avoid creating artefacts that could affect the results. PI was used for the staining of the cells' DNA content; however other fluorescent dyes can be used instead, such as DAPI and Hoechst 33342.
# Flow cytometry was used to quantify the DNA contents of the cells. This is a technique which was first introduced by Fulwyler which examines and counts cells or other microscopic particles by suspending them in a stream of fluid and passing them by an electronic detection apparatus. Cells had to pass through the flow cytometer's laser where a fluorescence pulse was generated and it correlated with the amount of DNA dye present inside the cells. […]
# Cell cycle arrest at the G2/M phase was examined by PI-staining. […] Cell suspension was kept at 4° C. until ready for analysis. […] Samples were analyzed using a Beckman Coulter (Dako) 2-laser CyAn ADP analyser provided by the Department of Biochemistry, TCD. […]
# [3] = target: T2, APN enzyme present on HUVECs (Homo sapiens, UniProt P15144); test: APN cell-based assay, HUVECs
# T2 construct: The presence of APN-expres sing cells replaced the step of the addition of the actual APN enzyme; host or cells: HUVECs
# T2 sequence (P15144 whole entry): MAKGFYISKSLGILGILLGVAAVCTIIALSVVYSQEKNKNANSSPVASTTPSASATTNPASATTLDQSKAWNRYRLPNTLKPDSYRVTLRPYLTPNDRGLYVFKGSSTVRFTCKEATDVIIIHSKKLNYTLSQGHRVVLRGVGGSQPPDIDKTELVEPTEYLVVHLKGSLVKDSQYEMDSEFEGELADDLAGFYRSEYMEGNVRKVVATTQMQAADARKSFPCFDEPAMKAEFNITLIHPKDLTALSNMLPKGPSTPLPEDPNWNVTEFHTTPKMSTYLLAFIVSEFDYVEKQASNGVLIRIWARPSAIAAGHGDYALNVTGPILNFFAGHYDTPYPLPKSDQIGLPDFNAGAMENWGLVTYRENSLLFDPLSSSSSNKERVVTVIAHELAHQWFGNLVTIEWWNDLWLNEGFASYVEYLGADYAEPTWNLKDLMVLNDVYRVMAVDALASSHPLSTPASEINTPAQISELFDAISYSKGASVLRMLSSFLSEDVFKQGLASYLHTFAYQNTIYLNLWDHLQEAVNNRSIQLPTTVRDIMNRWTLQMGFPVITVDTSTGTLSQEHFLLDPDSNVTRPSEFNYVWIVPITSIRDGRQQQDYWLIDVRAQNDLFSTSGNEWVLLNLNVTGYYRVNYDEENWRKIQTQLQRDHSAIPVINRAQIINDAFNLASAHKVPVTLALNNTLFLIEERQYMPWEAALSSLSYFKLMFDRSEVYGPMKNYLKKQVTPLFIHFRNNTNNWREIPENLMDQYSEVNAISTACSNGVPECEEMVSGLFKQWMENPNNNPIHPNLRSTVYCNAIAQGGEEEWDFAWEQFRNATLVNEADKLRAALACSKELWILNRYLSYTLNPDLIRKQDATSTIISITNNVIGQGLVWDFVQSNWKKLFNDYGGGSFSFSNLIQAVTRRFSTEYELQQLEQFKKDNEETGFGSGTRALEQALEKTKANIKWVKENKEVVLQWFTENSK
# Procedure: (§1) To further investigate the APN inhibitory effect of the hybrids the APN cell-based assay was carried out as previously described using both HUVECs and PC-3 cells. In order to exclude any possible cytotoxic effects of the tubulin component of the hybrids that could interfere with the outcome of the results, it was necessary to perform cytotoxicity assays. For this purpose, the MTT assay was used as previously described; however the duration of compounds' incubation was modified to 2 h in order to correlate with the incubation period of APN cell-based assay. The presence of APN-expres sing cells replaced the step of the addition of the actual APN enzyme and the rest of the protocol remained the same. The release of the resulting product p-nitroaniline was measured spectrophotometrically at 405 nm and the level of APN present […] the cells was directly related to the intensity of the colour absorbance.
# (§2) HUVECs/PC-3 cells' surface APN activity was estimated spectrophotometrically using L-leucine-p-nitroanilide as an APN substrate. 1×10^6 cells/ml ([…]) were seeded in 96-well plate and incubated overnight at 37° C. The following day cell medium was replaced by various concentrations of compounds diluted in HEPES buffer (100 μl). […] L-leucine-p-nitroanilide (50 μl) was added to each well to give a final concentration of 2 mM. Following 2 h incubation at 37° C., absorbance was measured at 405 nm using a FLUOstar OPTIMA microplate reader (BMG labtech). Each compound concentration was tested in quadruplicate and each experiment was performed at three independent times. The percentage APN inhibition was determined using the formula below and where appropriate, IC50 values were obtained.
# (§3) % APN inhibition=100−[(mean Abs of test compound)/(mean Abs of control)]*100
# [4] = target: T3, APN enzyme present on PC-3 cells (Homo sapiens, UniProt P15144); test: APN cell-based assay, PC-3 cells
# T3 construct: PC-3 cell line was selected due to its high expression of APN; host or cells: PC-3
# T3 sequence (P15144 whole entry): as above
# Procedure: as §1, §2, §3
# [5] = tested on: HUVECs; test: MTT cytotoxicity assay, HUVECs; format: cell-based, human
# Procedure: as §1
# Cell growth inhibition was assessed using the MTT assay. 5×10^4 cells/ml HUVECs or PC-3 cells (180 μl) were inoculated into each well of a 96-well plate and incubated overnight at 37° C. Compounds or control solutions (20 μl) were added into each well and the plates were incubated for 72 h. CA-4 was used as a positive control. […] The percentage growth inhibition was determined using the formula below and the results were expressed in terms of IC50 values.
# [6] = HUVEC, read-out: percentage APN inhibition
# T1 sequence (P02550 whole entry): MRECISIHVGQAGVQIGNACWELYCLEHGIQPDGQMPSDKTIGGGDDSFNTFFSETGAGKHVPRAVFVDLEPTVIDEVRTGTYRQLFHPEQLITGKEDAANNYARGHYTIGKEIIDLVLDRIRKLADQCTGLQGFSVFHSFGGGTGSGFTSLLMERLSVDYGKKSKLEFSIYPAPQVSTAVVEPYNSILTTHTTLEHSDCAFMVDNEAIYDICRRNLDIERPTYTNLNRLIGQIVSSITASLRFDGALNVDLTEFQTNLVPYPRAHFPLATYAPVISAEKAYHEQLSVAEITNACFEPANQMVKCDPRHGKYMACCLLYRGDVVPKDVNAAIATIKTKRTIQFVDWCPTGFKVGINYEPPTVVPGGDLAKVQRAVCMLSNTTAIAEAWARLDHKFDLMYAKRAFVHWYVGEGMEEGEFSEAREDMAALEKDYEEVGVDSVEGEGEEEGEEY
# T1 sequence (P02554 whole entry): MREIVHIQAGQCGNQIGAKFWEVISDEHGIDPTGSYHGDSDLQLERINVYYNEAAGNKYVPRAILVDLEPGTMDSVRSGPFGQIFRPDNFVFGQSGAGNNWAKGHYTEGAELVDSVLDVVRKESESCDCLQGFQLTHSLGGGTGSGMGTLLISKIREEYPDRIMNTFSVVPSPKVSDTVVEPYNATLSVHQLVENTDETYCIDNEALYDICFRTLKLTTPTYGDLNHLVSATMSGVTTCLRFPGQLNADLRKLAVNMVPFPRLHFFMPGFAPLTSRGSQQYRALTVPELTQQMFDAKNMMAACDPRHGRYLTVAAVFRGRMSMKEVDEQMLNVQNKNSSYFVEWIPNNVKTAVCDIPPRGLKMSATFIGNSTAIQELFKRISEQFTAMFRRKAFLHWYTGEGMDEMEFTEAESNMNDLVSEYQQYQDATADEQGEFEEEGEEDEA
compound,measurement,setting,value
"COc1ccc(C2=CC(=O)CCc3c2cc(OC)c(OC)c3OC)cc1O [Compound 1, (Z)-8,9-dihydro-5-(3-hydroxy-4-methoxyphenyl)-1,2,3-trimethoxybenzo[7]annulen-7-one]",IC50,[1],1050 nM
same,percentage of cells in the G2/M phase,[2]; 0.5 μM,86.3±2.3%
same,percentage of cells in the G2/M phase,[2]; 1 μM,79.35±1.7%
"COc1ccc(C2=CC(=O)CCc3c2cc(OC)c(OC)c3OC)cc1N [Compound 28, 2-methoxy-5-(2,3,4-trimethoxy-7-oxo-6,7-dihydro-5H-benzo[7]annulen-9-yl)benzenaminium chloride]",percentage of cells in the G2/M phase,[2]; 0.5 μM,81.25±0.6%
same,percentage of cells in the G2/M phase,[2]; 1 μM,76.07±4.82%
COc1ccc(C2=CC(=O)CCc3c2cc(OC)c(OC)c3OC)cc1OC(=O)C(CC(C)C)NC(=O)C(O)C(N)Cc1ccccc1.Cl (centres unmarked) [Compound 44],inhibition at 0.1 µM,[3]; [6],31.9 ± 19%
same,inhibition at 1 µM,[3]; [6],52.6 ± 14.7%
same,inhibition at 5 µM,[3]; [6],64 ± 16.1%
same,percentage APN inhibition,"[4]; 1 μM, PC-3 cells, 2 h incubation",31.3±8.9%
same,percentage APN inhibition,"[4]; 5 μM, PC-3 cells, 2 h incubation",51.7±8.5%
same,percentage APN inhibition,"[4]; 10 μM, PC-3 cells, 2 h incubation",55.7±9.8%
same,percentage APN inhibition,"[4]; 20 μM, PC-3 cells, 2 h incubation",71.4±7.5%
same,inhibition at 1 µM,"[4]; PC-3, read-out: percentage APN inhibition, 1 μM, PC-3 cells, 2 h incubation",27.8 ± 2.1%
same,inhibition at 5 µM,"[4]; PC-3, read-out: percentage APN inhibition, 5 μM, PC-3 cells, 2 h incubation",44.6 ± 7.3%
same,inhibition at 10 µM,"[4]; PC-3, read-out: percentage APN inhibition, 10 μM, PC-3 cells, 2 h incubation",63.7 ± 7.68%
same,inhibition at 20 µM,"[4]; PC-3, read-out: percentage APN inhibition, 20 μM, PC-3 cells, 2 h incubation",53.4 ± 16.1%
same,APN inhibition relative to bestatin,[4]; PC-3 cells,2 fold
"COc1ccc(C2=CC(=O)COc3c2cc(OC)c(OC)c3OC)cc1OC(=O)C(CC(C)C)NC(=O)C(O)C(N)Cc1ccccc1.Cl (centres unmarked) [Compound 45, 2-methoxy-5-(7,8,9-trimethoxy-3-oxo-2H-1-benzoxepin-5-yl)phenyl 2-(3-amino-2-hydroxy-4-phenylbutanamido)-4-methylpentanoate]",inhibition at 0.1 µM,"[3]; HUVEC, 0.1 μM, HUVECs, 2 h incubation, read-out: percentage APN inhibition",18.1 ± 2.9%
same,inhibition at 0.5 µM,"[3]; HUVEC, 0.5 μM, HUVECs, 2 h incubation, read-out: percentage APN inhibition",21.6 ± 2.2%
same,APN inhibition relative to bestatin,[3]; HUVECs,superior activity to that of bestatin
same,inhibition at 1 µM,"[4]; 1 μM, PC-3 cells, 2 h incubation, read-out: percentage APN inhibition",47.9 ± 1.23%
same,inhibition at 5 µM,"[4]; 5 μM, PC-3 cells, 2 h incubation, read-out: percentage APN inhibition",51.7 ± 1.38%
same,inhibition at 10 µM,"[4]; 10 μM, PC-3 cells, 2 h incubation, read-out: percentage APN inhibition",51.9 ± 3.89%
same,inhibition at 20 µM,"[4]; 20 μM, PC-3 cells, 2 h incubation, read-out: percentage APN inhibition",56.5 ± 3.13%
same,APN inhibition relative to bestatin,[4]; PC-3 cells,significantly more potent APN inhibitor than bestatin
same,cytotoxic effect on HUVECs,[5],potent cytotoxic effect
